The nature of data set [1]: Hydrogel formation in buffer viewed under light microscope. The following applies: pH 4 general lab buffer or pH 9 K2HPO4/MgCl2 buffer (20 μL each).
A further data set deals with T1, MMP-1 (Homo sapiens, UniProt P03956).
T1 sequence (P03956 100-469): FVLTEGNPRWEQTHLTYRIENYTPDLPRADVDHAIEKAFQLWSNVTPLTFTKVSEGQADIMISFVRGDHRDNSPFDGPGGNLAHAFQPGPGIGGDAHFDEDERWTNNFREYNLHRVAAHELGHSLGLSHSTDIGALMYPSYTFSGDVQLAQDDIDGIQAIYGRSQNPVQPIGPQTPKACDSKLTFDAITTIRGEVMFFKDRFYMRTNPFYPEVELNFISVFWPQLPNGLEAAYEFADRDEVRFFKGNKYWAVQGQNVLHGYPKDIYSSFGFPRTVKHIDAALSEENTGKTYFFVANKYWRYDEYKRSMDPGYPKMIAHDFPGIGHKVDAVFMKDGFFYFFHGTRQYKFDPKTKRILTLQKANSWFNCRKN
The following applies: cited from earlier work.

In another data set the target is MMP-3 (Homo sapiens, UniProt P08254). The following applies: cited from earlier work.
The target in the next data set is MMP-8 (Homo sapiens, UniProt P22894). Particulars: cited from earlier work.
Another data set deals with MMP-9 (Homo sapiens, UniProt P14780). The following applies: cited from earlier work.
In a further data set the target is T2, MMP-7 (Homo sapiens, UniProt P09237).
T2 sequence (P09237 95-267): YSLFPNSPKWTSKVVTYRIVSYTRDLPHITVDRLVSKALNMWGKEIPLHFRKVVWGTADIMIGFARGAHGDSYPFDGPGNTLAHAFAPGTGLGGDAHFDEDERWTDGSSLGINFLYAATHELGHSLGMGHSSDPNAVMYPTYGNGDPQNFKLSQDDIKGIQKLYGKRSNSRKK
Particulars: cited from earlier work.

The next data set concerns the target T3, MMP-2 (Homo sapiens, UniProt P08253).
T3 sequence (P08253 110-660): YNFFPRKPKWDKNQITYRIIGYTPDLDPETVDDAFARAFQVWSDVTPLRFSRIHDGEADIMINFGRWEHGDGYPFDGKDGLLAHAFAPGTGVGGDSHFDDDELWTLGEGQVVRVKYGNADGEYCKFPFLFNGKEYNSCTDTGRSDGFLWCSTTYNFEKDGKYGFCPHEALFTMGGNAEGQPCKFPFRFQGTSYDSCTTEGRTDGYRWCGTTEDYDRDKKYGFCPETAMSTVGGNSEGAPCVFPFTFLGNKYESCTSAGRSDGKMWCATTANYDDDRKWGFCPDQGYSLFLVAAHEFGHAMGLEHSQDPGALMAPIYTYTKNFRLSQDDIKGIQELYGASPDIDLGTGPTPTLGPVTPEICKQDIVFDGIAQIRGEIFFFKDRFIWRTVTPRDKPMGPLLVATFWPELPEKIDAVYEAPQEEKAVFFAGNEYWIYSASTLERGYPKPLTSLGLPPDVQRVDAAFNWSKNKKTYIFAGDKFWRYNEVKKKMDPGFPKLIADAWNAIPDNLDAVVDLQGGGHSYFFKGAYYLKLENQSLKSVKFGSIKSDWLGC
The following applies: cited from earlier work.

Sequence of MMP-8 (P22894 101-467): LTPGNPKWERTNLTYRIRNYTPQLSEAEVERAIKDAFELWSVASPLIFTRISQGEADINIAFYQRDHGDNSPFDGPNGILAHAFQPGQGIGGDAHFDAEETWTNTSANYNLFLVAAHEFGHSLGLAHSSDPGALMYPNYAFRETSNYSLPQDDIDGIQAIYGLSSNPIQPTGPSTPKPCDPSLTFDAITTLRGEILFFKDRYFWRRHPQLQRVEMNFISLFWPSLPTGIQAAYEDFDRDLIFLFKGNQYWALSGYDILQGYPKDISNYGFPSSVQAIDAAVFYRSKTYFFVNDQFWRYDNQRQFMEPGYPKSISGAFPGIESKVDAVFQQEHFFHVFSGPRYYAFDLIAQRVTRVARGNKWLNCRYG
Sequence of MMP-9 (P14780 94-707): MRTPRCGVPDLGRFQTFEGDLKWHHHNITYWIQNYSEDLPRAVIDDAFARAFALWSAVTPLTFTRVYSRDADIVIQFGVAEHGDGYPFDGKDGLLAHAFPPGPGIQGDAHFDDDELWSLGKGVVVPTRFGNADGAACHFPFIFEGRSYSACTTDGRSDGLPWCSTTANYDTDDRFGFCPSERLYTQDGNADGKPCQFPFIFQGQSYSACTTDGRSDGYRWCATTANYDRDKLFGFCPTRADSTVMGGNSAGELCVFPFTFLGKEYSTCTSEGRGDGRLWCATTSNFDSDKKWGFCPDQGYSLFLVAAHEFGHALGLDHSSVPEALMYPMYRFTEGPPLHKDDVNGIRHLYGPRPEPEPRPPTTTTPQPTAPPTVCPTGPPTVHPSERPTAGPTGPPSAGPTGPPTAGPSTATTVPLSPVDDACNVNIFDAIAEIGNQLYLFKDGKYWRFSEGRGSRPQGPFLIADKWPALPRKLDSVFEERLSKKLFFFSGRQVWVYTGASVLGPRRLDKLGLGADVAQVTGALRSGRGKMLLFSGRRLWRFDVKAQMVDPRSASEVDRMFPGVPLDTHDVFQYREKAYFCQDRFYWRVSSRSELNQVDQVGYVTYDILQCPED
Sequence of MMP-3 (P08254 100-477): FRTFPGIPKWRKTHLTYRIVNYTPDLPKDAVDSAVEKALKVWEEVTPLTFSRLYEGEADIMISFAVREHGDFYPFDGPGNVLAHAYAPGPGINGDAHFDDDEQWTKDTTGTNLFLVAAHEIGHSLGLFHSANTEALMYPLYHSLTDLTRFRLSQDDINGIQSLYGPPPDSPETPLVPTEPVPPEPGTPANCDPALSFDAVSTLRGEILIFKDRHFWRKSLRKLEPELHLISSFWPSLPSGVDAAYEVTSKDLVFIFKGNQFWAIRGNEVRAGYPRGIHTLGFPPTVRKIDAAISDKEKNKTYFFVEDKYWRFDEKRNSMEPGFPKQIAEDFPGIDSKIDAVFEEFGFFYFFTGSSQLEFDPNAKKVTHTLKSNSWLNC

With `CN(C)c1ccc(/N=N/c2ccc(S(=O)(=O)NCCCC[C@H](NC(=O)OCC3c4ccccc4-c4ccccc43)C(=O)O)cc2)cc1` [compound 4-c], the “Hydrogel formation on contact with buffer” value in data set [1] is “did not form a hydrogel”.
With Gly-Pro-Gln-Pro#Ile-Ala-Gly-Gln, the “Relative rate MMP-1” value at MMP-1 is 260. For the same compound, the “Relative rate MMP-3” value on MMP-3 is 170. Besides, the “Relative rate MMP-8” value on MMP-8 is 190. Further, the “Relative rate MMP-9” value on MMP-9 was 46. Also, at MMP-7, the “Relative rate MMP-7” value is on record as 140. Besides, on MMP-2, the “Relative rate MMP-2” value was 32.
For Gly-Pro-Gln-Tyr#Ile-Ala-Gly-Gln, the “Relative rate MMP-1” value on MMP-1 is on record as 130. Besides, at MMP-3, the “Relative rate MMP-3” value was 68. The “Relative rate MMP-8” value on MMP-8 was 180. Further, the “Relative rate MMP-9” value on MMP-9 was 30. Moreover, the “Relative rate MMP-7” value on MMP-7 was 34. In addition, at MMP-2, the “Relative rate MMP-2” value is 58.
Take Gly-Pro-Gln-Val#Ile-Ala-GLy-Gln: the “Relative rate MMP-1” value on MMP-1 is 5.5. Also, the “Relative rate MMP-3” value on MMP-3 was 32. Further, at MMP-8, the “Relative rate MMP-8” value is listed as 7.9. For the same compound, at MMP-9, the “Relative rate MMP-9” value is given as less than 5.0. Further, on MMP-7, the “Relative rate MMP-7” value is less than 5.0. Besides, the “Relative rate MMP-2” value at MMP-2 is less than 5.0.
As to Gly-Pro-Hyp-Gly#Ile-Ala-Gly-Gln, the “Relative rate MMP-1” value at MMP-1 was 11. In addition, the “Relative rate MMP-3” value at MMP-3 is 83. For the same compound, the “Relative rate MMP-8” value on MMP-8 is reported as 15. Further, the “Relative rate MMP-9” value at MMP-9 was 15. The “Relative rate MMP-7” value on MMP-7 is on record as 17. The “Relative rate MMP-2” value at MMP-2 is 32.
Regarding Gly-Pro-Leu-Gly#Ile-Ala-Gly-Gln, on MMP-1, the “Relative rate MMP-1” value was 150. For the same compound, the “Relative rate MMP-3” value at MMP-3 is 190. Besides, the “Relative rate MMP-8” value on MMP-8 is 260. Further, the “Relative rate MMP-9” value on MMP-9 is 290. The “Relative rate MMP-7” value on MMP-7 is 420. In addition, the “Relative rate MMP-2” value on MMP-2 is given as 330.
With Gly-Pro-Tyr-Gly#Ile-Ala-Gly-Gln, the “Relative rate MMP-1” value at MMP-1 is 200. Moreover, the “Relative rate MMP-3” value on MMP-3 is on record as 230. The “Relative rate MMP-8” value on MMP-8 was 110. Further, at MMP-9, the “Relative rate MMP-9” value is 150. Further, the “Relative rate MMP-7” value on MMP-7 was 240. Also, at MMP-2, the “Relative rate MMP-2” value was 200.
Consider Gly-Pro-Val-Gly#Ile-Ala-Gly-Gln, for which the “Relative rate MMP-1” value at MMP-1 was 32. In addition, the “Relative rate MMP-3” value on MMP-3 is recorded as 160. In addition, at MMP-8, the “Relative rate MMP-8” value is recorded as 30. Besides, the “Relative rate MMP-9” value at MMP-9 is reported as 110. The “Relative rate MMP-7” value on MMP-7 is 57. Further, the “Relative rate MMP-2” value on MMP-2 was 130.
For Gly-Pto-Arg-Gly#Ile-Ala-Gly-Gln, on MMP-1, the “Relative rate MMP-1” value was 17. In addition, at MMP-3, the “Relative rate MMP-3” value was 99. Moreover, the “Relative rate MMP-8” value on MMP-8 is on record as 32. For the same compound, on MMP-9, the “Relative rate MMP-9” value was 83. The “Relative rate MMP-7” value at MMP-7 was 13. The “Relative rate MMP-2” value at MMP-2 is 160.
Take “Gly-Pto-Met-Gly#Ile-Ala-Gly-Gln (IAGQ; printed: Ile-Ala-Gly-Gln)”: the “Relative rate MMP-1” value with MMP-1 is on record as 160. Further, in the data set with MMP-3, the “Relative rate MMP-3” value is on record as 120. In the data set with MMP-8, the “Relative rate MMP-8” value was 160. Besides, the “Relative rate MMP-9” value with MMP-9 was 180. Further, the “Relative rate MMP-7” value with MMP-7 is listed as 400. For the same compound, the “Relative rate MMP-2” value in the data set with MMP-2 is 120.
